Measurements reported in EP0314008A2, “N-substituted aliphatic heterocyclic compounds able to facilitate the passage of active substances through physiological barriers” (priority 1987, dated 1989).
Values belong to the compound of their own block, whether it stands above or below them.

How the values were obtained:
serotonin = assay: Test 74 - Antiserotonin (in vitro), isolated ileal segments; assay type: cell-based, guinea pig; conditions: Cavia porcellus, contractile response to serotonin (1 mcg/ml); for inhibition at 1 µg/mL: Dose 1 γ/ml
From the text: Test 74 - Antiserotonin (in vitro):

[1] = test system: skin taken from a "nude" mouse
Experimental: (§1) This study was carried out by "in vitro" tests using a skin diffusion cell apparatus consisting of two glass segments separated by a layer of skin taken from a "nude" mouse, genetically without hair. Suspensions of the substance to be tested are deposited on the stratum corneum of the skin. The dermic layer dips into a buffer solution from which withdrawals are made at intervals to determine the quantity of substance which has passed through the epidermis.
(§2) 1-dodecylazacycloheptan-2-one (azone) is used as reference standard.
(§3) Suspensions at the required concentrations (0.5 and 1% w/v) are then prepared by ultrasonic treatment three times for 30 seconds in an ice bath with a titanium-tipped ultrasonic generator. The pHs of the 1 % suspensions in 0.1 M pH 7.0 phosphated buffer are as follows:
(§4) The volume of examined suspension applied externally to the skin is 1 ml. The volume of buffer solution in the cell lower chamber is 10 ml. After each withdrawal of 1 ml of solution from the lower chamber, the volume was made up to 10 ml by adding buffer.

[2] = test system: skin taken from a "nude" mouse; assay: skin permeability test in vitro, skin diffusion cell apparatus, passage of naproxen-Na; conditions: naproxen-Na passage with facilitating substance at 0.5%, second set
Experimental: as §1, §2, §3, §4

LTD4 = assay: Test 37 - LTD4 antagonist (in vitro), isolated ileal segments; assay type: cell-based, guinea pig; conditions: Cavia porcellus, contractile response to LTD4 (10 ng/ml)
From the text: Test 37 - LTD4 antagonist (in vitro):

histamine = assay: Test 73 - Antihistaminic (in vitro), isolated ileal segments; assay type: cell-based, guinea pig; conditions: Cavia porcellus, contractile response to histamine (0.5 mcg/ml)
From the text: Test 73 - Antihistaminic (in vitro):
Inhibition of submaximal contractile responses of isolated guinea pig ileal segments, bathed in physiological salt solution, to histamine (0.5 mcg/ml) by more than 80 percent (>80) indicates activity.

SMILES: CN1CCC(=C2c3ccccc3C=Cc3ccccc32)CC1 [Cyproheptadine, reference compound]
inhibition at 1 µg/mL (serotonin): 85%

results compared with the compound of Example 3 [1]: practically equal results
SMILES: CCCCCCCCCCCCN1CCSCC1 [Example 1, 4-dodecylthiomorpholine]

SMILES: CCCCCCCCCCCCN1CC[S+]([O-])CC1 [Example 2, 4-dodecylthiomorpholine-1-oxide]
F.U.a. 355.5 nm ([2]; 3.0 hours): 0.143 F.U.a. | nmoles passed ([2]; 3.0 hours): 366.0 nmol | F.U.a. 355.5 nm ([2]; 5.0 hours): 0.426 F.U.a. | nmoles passed ([2]; 5.0 hours): 1093.0 nmol | F.U.a. 355.5 nm ([2]; 7.0 hours): 0.755 F.U.a. | nmoles passed ([2]; 7.0 hours): 1968.0 nmol | F.U.a. 355.5 nm ([2]; […]): 0.033 F.U.a. | nmoles passed ([2]; […]): 82.5 nmol

SMILES: CCCCCCCCCC(=O)N1CCSCC1 [Example 5, 4-decanoylthiomorpholide]
inhibition at 4 µg/mL (LTD4; Dose 4 γ/ml): 28% | inhibition at 8 µg/mL (LTD4; Dose 8 γ/ml): 75% | inhibition at 1 µg/mL (histamine; Dose 1 γ/ml): 18% | inhibition at 2.5 µg/mL (histamine; Dose 2.5 γ/ml): 82% | inhibition at 10 µg/mL (histamine; Dose 10 γ/ml): 100% | inhibition at 0.5 µg/mL (serotonin; Dose 0.5 γ/ml): 68% | inhibition at 1 µg/mL (serotonin): 100% | inhibition at 2.5 µg/mL (serotonin; Dose 2.5 γ/ml): 100% | inhibition at 10 µg/mL (serotonin; Dose 10 γ/ml): 100%
